Data set [1] is described as follows: Unbound fractions in plasma and brain homogenates by equilibrium dialysis. It is filed as in vitro ADME. Particulars: for fraction unbound: equilibrium dialysis. The source says: Without wishing to be bound by any particular theory, it is believed that it is possible (although uncommon) for a BBB-permeable compound to have a very low B/P ratio if the fraction of free, unbound drug is much greater in the […]. More specifically, a drug that is freely diffusible across the BBB will at equilibrium have a free drug B/P ratio (B/Pfree)=1, where B/Pfree=B/P×fu(brain))/fu(plasma) (Maurer, et al., 2005, Drug Metab Dispos. 33:175-181; Kalvasset al., 2007, Drug Metab Dispos. 35:660-666) and fti represents unbound drug fractions. […] To ensure that the low B/P ratios obtained with the TP antagonists of Table 1 were truly reflective of poor BBB permeability, the unbound fractions in plasma and brain homogenates were measured using established equilibrium dialysis methods (Maurer, et al., 2005, Drug Metab Dispos. 33:175-181; Kalvasset al., 2007, Drug Metab Dispos. 35:660-666; Friden, et al., 2007, Drug Metab Dispos. 35:1711-1719). […] This is further illustrated by comparing the calculated B/Pfree ratios (Table 1), which are <<1. Because the existing repertoire of TP receptor antagonists share common structural features, including free carboxylate moieties, it is highly unlikely that any of these existing compounds would be sufficiently brain-penetrant to be potential AD therapeutics.
In general terms: Equilibrium dialysis compares concentrations on both sides of a semipermeable membrane.

Another data set can be described thus: in vivo. Particulars: female, B6C3HF1, mouse, in vivo, ip, 5 mg/kg. Here is the method: One-month old B6C3HF1 female mice were given intraperitoneal injections of compounds at 5 mg/kg. 1 hour after injection, mice were lethally anesthetized with an intraperitoneal injection of ketamine hydrochloride (1 mg/10 g) and xylazine (0.1 mg/10 g) and perfused intracardially with PBS in accordance with protocols approved by the University of Pennsylvania.
Brain samples were homogenized in 10 mM ammonium acetate, pH 5.7 (1:2; w/v) using a handheld sonic homogenizer. Compound from 50 μL of brain homogenate or plasma was extracted with 200 μL acetonitrile, centrifuged, and the supernatant removed for LC/MS/MS analysis. Compounds were detected using multiple reaction monitoring (MRM) of their specific collision-induced ion transitions and quantified using peak areas.
The LC/MS/MS system was comprised of an Agility UPLC, a TQ MS, and controlled using MassLynx software (Waters Corporation, Milford, Mass., USA). Samples were separated on an Aquity BEH C18 column (1.7 μm, 2.1×50 mm) at 35° C. For operation in positive electrospray ionization mode, the mobile phase A was 0.1% (v/v) formic acid, and B was either acetonitrile or methanol with 0.1% (v/v) formic acid. For operation in negative electrospray ionization mode, the mobile phase A was 10 mM ammonium acetate, and B was methanol with 10 mM ammonium acetate, Injections of 5 μL were separated at a flow rate of 0.6 mL/min using a gradient from 5% to 95% B over two minutes followed by wash and re-equilibration steps.
The MS was operated with a desolvation temperature of 450° C. and a source temperature of 150° C. Desolvation and source nitrogen gas flows were 900 L/hr and 50 L/hr, respectively. Collision cell argon gas flow was 0.1 mL/min. Source and analyzer voltages were optimized for each compound using the MassLynx auto tune utility. Compound standards at 1000 ng/mL in 50% acetonitrile were infused at 30 μL/min and combined with flow from the UPLC at 0.6 mL/min and 50% B.
Standard curves were generated from spiked brain homogenate and plasma prepared at 4, 40, 400 and 4000 ng/mL and extracted as above. Peak area was plotted versus concentration and a 1/x weighted linear regression curve was used to quantify the unknowns using the average peak area from triplicate injections,
The following experiments were designed to analyze TP receptor antagonists to determine their relative BBB penetration. The TP receptor antagonists were administered via i.p. injection at 5 mg/kg to normal mice, and brain and plasma compound concentrations were assessed by LC-MS/MS at 1 and 4 hours after dosing.
To examine the blood-brain barrier permeability of these compounds, one-month old B6C3F1 mice were injected at 5 mg/kg and sacrificed 1 hour after injection.

Data set [2] can be described thus: S18886 brain and plasma levels after administration to mice in drinking water. It is filed as in vivo. Here is the method:
Brain and plasma drug levels of S18886 were measured after administration to mice in drinking water, as previously described (Shineman, et al., 2008, J. Neurosci 28:4785-4794). Mice have 20-30 separate drinking bouts over the course of the day (Gannon, et al., 1992, Physiol Behav. 51:515-521), albeit with much greater water consumption during the night. […] In fact, extended exposure to excessively high blood levels of a TP receptor antagonist could increase the risk of bleeding complications due to compromise of platelet function, as it is known that TP receptor knockout mice and TxA2 synthase-deficient mice have prolonged clotting times (Thomas, et al., 1998, J Clin Invest 102:1994-2001; Yu, et al., 2004, Blood 104:135-142). Furthermore, inactivating mutations in the TP receptor have been linked to a dominantly inherited bleeding disorder in humans (Hirata, et al., 1994, J Clin Invest 94:1662-1667).

[3] abbreviates: B/Pfree (unbound drug brain-to-plasma ratio).

Like-named read-outs stand apart in the source and are kept apart here.

As a reminder, the fraction unbound is free concentration divided by total concentration. For orientation: Kp means tissue or fluid exposure divided by exposure in the circulation. Regarding `Cc1ccc2c(c1CCC(=O)O)CC[C@@H](NS(=O)(=O)c1ccc(Cl)cc1)C2` [Compound S18886], the fraction unbound is 0.044 in data set [1] (brain homogenate, read-out: fu(brain) (fraction unbound)) and 0.026 in data set [1] (plasma, read-out: fu(plasma) (fraction unbound)). In data set [1] (plasma and brain homogenate, ratio of unbound fractions plasma/brain, read-out: fu(pl)/fu(br)), the plasma/brain unbound fraction ratio was 0.59. Further, the results for the Kp at 1 h in “in vivo” (B/P (brain-to-plasma ratio)) and in “in vivo” (setting [3]) were 0.02 and 0.04, respectively. In addition, the values for the Kp at 4 h in “in vivo” (B/P (brain-to-plasma ratio)) and in “in vivo” (setting [3]) were 0.05 and 0.08, respectively. In addition, the results for the concentration at 1 h in the data set “in vivo” (Brain) and in “in vivo” (Plasma) were 42.4 ng/mL and 1710 ng/mL, respectively. The concentration at 4 h stood at 9 ng/mL in “in vivo” (Brain) and 190 ng/mL in the data set “in vivo” (Plasma). For the same molecule, the “free drug in plasma relative to brain” value in data set [2] (drinking water dosing) is on record as more than 10 ×. Moreover, the “calculated free drug concentration in brain as % of Kd at mouse TP receptor” value in data set [2] (drinking water dosing, daylight phase) is on record as approximately 30%. In data set [2] (mouse, brain, oral, dosing by drinking water, day 1, daylight phase, read-out: Free S18886 brain level), the concentration at 1 day worked out at 0.093 nM. Further, in data set [2] (mouse, brain, oral, dosing by drinking water, day 2, daylight phase, read-out: Free S18886 brain level), the concentration at 2 day is 0.117 nM.
